# The supplement of paper PMC10307832
# Assays:
# Test in all cases: relative viability (nuclei count vs DMSO), 5 days (fraction); higher = more cells survive
# Veliparib + Trametinib = compound: C[C@]1(c2nc3c(C(N)=O)cccc3[nH]2)CCCN1 [Veliparib] + CC(=O)Nc1cccc(-n2c(=O)n(C3CC3)c(=O)c3c(Nc4ccc(I)cc4F)n(C)c(=O)c(C)c32)c1 [Trametinib] (partner 0.02 µM)
# Procedure, shortened: (§1)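 Values are medians from duplicate plates. Each reflects relative viability, defined as the nuclei count of treated wells over that of vehicle wells. Lung cancer cell lines in 1536-well plates were pin-tool dosed one day after seeding with one drug alone or with a fixed anchor-drug dose plus five library-drug doses (not always all listed) in √10 steps, then fixed, stained and imaged at 4× after 5 days.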
# Veliparib + Navitoclax = compound: C[C@]1(c2nc3c(C(N)=O)cccc3[nH]2)CCCN1 [Veliparib] + CC1(C)CCC(c2ccc(Cl)cc2)=C(CN2CCN(c3ccc(C(=O)NS(=O)(=O)c4ccc(N[C@H](CCN5CCOCC5)CSc5ccccc5)c(S(=O)(=O)C(F)(F)F)c4)cc3)CC2)C1 [Navitoclax] (partner 0.5 µM)
# Procedure, shortened: as §1
# [1] = compound: COC1=CC=C(C=C1)CN2C=CC3=C2C=C(C=C3)C(=O)NO + COc1cc2c(Oc3ccc(NC(=O)C4(C(=O)Nc5ccc(F)cc5)CC4)cc3F)ccnc2cc1OCCCN1CCOCC1 [Foretinib] (partner 0.25 µM)
# Procedure, shortened: as §1
# [2] = compound: COC1=CC=C(C=C1)CN2C=CC3=C2C=C(C=C3)C(=O)NO + O=C(CCCCCCC(=O)Nc1ccccc1)NO [Vorinostat] (partner 1 µM)
# Procedure, shortened: as §1
Cell Line,relative viability (Veliparib + Trametinib; first compound 0.02 µM),relative viability (Veliparib + Trametinib; first compound 0.06325 µM),relative viability (Veliparib + Trametinib; first compound 0.2 µM),relative viability (Veliparib + Trametinib; first compound 0.6325 µM),relative viability (Veliparib + Trametinib; first compound 2 µM),relative viability (Veliparib + Navitoclax; first compound 0.02 µM),relative viability (Veliparib + Navitoclax; first compound 0.06325 µM),relative viability (Veliparib + Navitoclax; first compound 0.2 µM),relative viability (Veliparib + Navitoclax; first compound 0.6325 µM),relative viability (Veliparib + Navitoclax; first compound 2 µM),relative viability ([1]; first compound 0.08 µM),relative viability ([1]; first compound 0.253 µM),relative viability ([1]; first compound 0.8 µM),relative viability ([1]; first compound 2.53 µM),relative viability ([1]; first compound 8 µM),relative viability ([2]; first compound 0.08 µM),relative viability ([2]; first compound 0.253 µM),relative viability ([2]; first compound 0.8 µM),relative viability ([2]; first compound 2.53 µM),relative viability ([2]; first compound 8 µM)
NCI-H1755,0.821,0.763,0.812,0.741,0.768,1.02,0.946,0.939,0.925,0.967,0.892,1.01,0.915,0.941,0.946,0.694,0.884,0.777,0.876,0.725
NCI-H1793,0.476,0.417,0.474,0.361,0.465,0.435,0.602,0.424,0.376,0.396,,0.732,0.63,0.656,0.63,,0.832,0.801,0.816,0.759
NCI-H1915,0.309,0.289,0.302,0.292,0.291,0.766,0.759,0.706,0.703,0.67,1.07,1.1,1.15,1.07,1.09,0.326,0.49,0.48,0.514,0.492
NCI-H1944,0.432,0.398,0.418,0.418,0.405,0.99,0.996,0.929,0.907,0.899,,0.874,0.853,0.887,0.912,,0.677,0.577,0.603,0.399
